According to patent publication US12329741B2, “HBV inhibitor and its use” (priority 2019, dated 2025):

Key:
hepatitis B virus (HBV) = test: Anti-hepatitis B virus activity: HBV DNA in supernatant of HepG2.2.15 cells by qPCR; assay type: cell-based; settings: 192 h, supernatant collected on day 8
Text: (§1) In this experiment, real-time fluorescent quantitative PCR (qPCR) method was used to detect the content of HBV DNA in the supernatant of HepG2.2.15 cells to determine the anti-hepatitis B virus activity of the compound in HepG2.2.15 cells, and to detect cell viability impact of the test compound against HepG2.2.15 by Cell-titer Blue method. In the experiment, entecavir (ETV) was used as a reference compound to monitor the quality of the experiment.
On day 1, the cells were planted into a 96-well plate, the compound was added to treat the cells on day 2, a new culture medium containing the compound was replaced on day 5, and the supernatant was collected on day 8 to extract DNA. Quantitative PCR was used to detect the content of HBV DNA. Both the test compound and the control compound were diluted in a series of 3 times with 8 concentration points, and 2 replicate wells were measured in parallel. The final concentration of DMSO in the culture medium is 0.5%.
The calculation formula of the inhibition percentage is as follows: % inh.=(1-HBV copy number of sample/HBV copy number of 0.5% DMSO control)×100
EC50 was analyzed by Graphpad Prism software (four parameter logistic equations).

[1] = Cytotoxicity test (Cell-titer Blue method) in HepG2.2.15 cells; assay type: cell-based; settings: human, six days after treatment, highest concentration tested 100 μM, read-out: HepG2.2.15 cell viability CC50
Text: as §1
The compound concentration, plate layout, and compound treatment process are consistent with the antiviral experiments. In six days after the cells were treated with the compound, the cell viability was measured with Cell-titer Blue.
Analyze the data and calculate relative cell viability: Use the following formula to calculate the percentage of cell viability: % Cell viability=(sample fluorescence reading-fluorescence reading of culture medium control)/(fluorescence reading of DMSO control-fluorescence reading of the culture medium control)×100.
Finally, GraphPad Prism software was used to calculate the CC50 value of the compound.

For `Cc1c(C(=O)C(=O)NC(C)C(F)(F)F)c(C)n(C)c1C(=O)Nc1ccc2occc2c1` (stereo in doubt) [Compound 56, 1,3,5-Trimethyl-2-amide-N-(benzofuran-5-yl)-4-(2-((S)-1,1,1-trifluoropropane-2-Amino)-oxalyl)-pyrrole], the EC50 (hepatitis B virus (HBV)) was at most 0.05 µM and the CC50 at 6 days [1] was over 100 µM.

Compound `Cc1oc(C(=O)C(=O)NC(C)(C)C)cc1C(=O)Nc1ccc(F)c(Cl)c1` [Compound 1, 2-Methyl-3-amide-N-(3-chloro-4-fluorophenyl)-5-(2-tert-butylamino-oxalyl)-furan] has an EC50 (hepatitis B virus (HBV)) of 0.5 to 5 µM and a CC50 at 6 days [1] of over 100 µM.

`C#CC(C)NC(=O)C(=O)c1cc(C(=O)Nc2ccc(F)c(Cl)c2)c(C)o1` (stereo not shown) [Compound 3, 2-Methyl-3-amide-N-(3-chloro-4-fluorophenyl)-5-(2-(1-methylpropynamido)-oxalyl)-furan] showed an EC50 (hepatitis B virus (HBV)) of 0.5 to 5 µM and a CC50 at 6 days [1] of over 100 µM.

Compound `C#CC(C)(C)NC(=O)C(=O)c1cc(C(=O)Nc2ccc(F)c(Cl)c2)c(C)o1` [Compound 4, 2-Methyl-3-amide-N-(3-chloro-4-fluorophenyl)-5-(2-(1,1-dimethylpropynamido)-oxalyl)-furan] has an EC50 (hepatitis B virus (HBV)) of 0.5 to 5 µM and a CC50 at 6 days [1] of over 100 µM.

In the case of `CC#CCNC(=O)C(=O)c1cc(C(=O)Nc2ccc(F)c(Cl)c2)c(C)o1` [Compound 5, 2-Methyl-3-amide-N-(3-chloro-4-fluorophenyl)-5-(2-(2-alkynylbutylamino)-oxalyl)-furan], the EC50 (hepatitis B virus (HBV)) is reported as 5 to 50 µM and the CC50 at 6 days [1] is reported as over 100 µM.

In the case of `Cc1oc(C(=O)C(=O)NCC#CC(C)C)cc1C(=O)Nc1ccc(F)c(Cl)c1` [Compound 6, 2-Methyl-3-amide-N-(3-chloro-4-fluorophenyl)-5-(2-(4-methyl-2-ynylpentylamino)-oxalyl)-furan], the EC50 (hepatitis B virus (HBV)) is reported as 5 to 50 µM and the CC50 at 6 days [1] is reported as 82 µM.

For `Cc1oc(C(=O)C(=O)NCC#Cc2ccccc2)cc1C(=O)Nc1ccc(F)c(Cl)c1` [Compound 7, 2-Methyl-3-amide-N-(3-chloro-4-fluorophenyl)-5-(2-(3-phenyl-2-eynylpropylamino)-oxalyl)-furan], the EC50 (hepatitis B virus (HBV)) was over 50 µM and the CC50 at 6 days [1] was 29 µM.

`Cc1oc(C(=O)C(=O)Nc2ccccc2)cc1C(=O)Nc1ccc(F)c(Cl)c1` [Compound 9, 2-Methyl-3-amide-N-(3-chloro-4-fluorophenyl)-5-(2-anilino-oxalyl)-furan] gave an EC50 (hepatitis B virus (HBV)) of 5 to 50 µM and a CC50 at 6 days [1] of over 100 µM.

Work on `C=CCn1cc(CNC(=O)C(=O)c2cc(C(=O)Nc3ccc(F)c(Cl)c3)c(C)o2)nn1` [Compound 10, 2-Methyl-3-amide-N-(3-chloro-4-fluorophenyl)-5-(2-(1-allyl-1H[1,2,3]-triazole-4-methylamino)-oxalyl)-furan] yielded an EC50 (hepatitis B virus (HBV)) of over 50 µM and a CC50 at 6 days [1] of over 100 µM.

With `Cc1oc(C(=O)C(=O)NC2(C(F)(F)F)CC2)cc1C(=O)Nc1ccc(F)c(Cl)c1` [Compound 16, 2-Methyl-3-amide-N-(3-chloro-4-fluorophenyl)-5-(2-(1-trifluoromethyl-cyclopropylamino)-oxalyl)-furan] the EC50 (hepatitis B virus (HBV)) was 0.05 to 0.5 µM and the CC50 at 6 days [1] was over 100 µM.

Compound `Cc1oc(C(=O)C(=O)NCc2c[nH]nn2)cc1C(=O)Nc1ccc(F)c(Cl)c1` [Compound 17, 2-Methyl-3-amide-N-(3-chloro-4-fluorophenyl)-5-(2-(1H-1,2,3-triazole-4-methylamino)-oxalyl)-furan] has an EC50 (hepatitis B virus (HBV)) of 5 to 50 µM and a CC50 at 6 days [1] of over 100 µM.

For `Cc1oc(C(=O)C(=O)NC(C)(C)C)cc1C(=O)Nc1ccc(F)cc1` [Compound 18, 2-Methyl-3-amide-N-(4-fluorophenyl)-5-(2-tert-butylamino-oxalyl)-furan], the EC50 (hepatitis B virus (HBV)) was 0.5 to 5 µM and the CC50 at 6 days [1] was over 100 µM.

Compound `Cc1oc(C(=O)C(=O)NC(C)(C)C)cc1C(=O)Nc1ccc(F)c(F)c1` [Compound 19, 2-Methyl-3-amide-N-(3,4-difluorophenyl)-5-(2-tert-butylamino-oxalyl)-furan] has an EC50 (hepatitis B virus (HBV)) of 0.5 to 5 µM and a CC50 at 6 days [1] of over 100 µM.

`Cc1oc(C(=O)C(=O)NC(C)(C)C)cc1C(=O)Nc1cc(F)c(F)c(F)c1` [Compound 20, 2-Methyl-3-amide-N-(3,4,5-trifluorophenyl)-5-(2-tert-butylamino-oxalyl)-furan] gave an EC50 (hepatitis B virus (HBV)) of 0.05 to 0.5 µM and a CC50 at 6 days [1] of over 100 µM.

For `Cc1oc(C(=O)C(=O)NC(C)(C)C)cc1C(=O)Nc1ccc(F)c(C#N)c1` [Compound 21], the EC50 (hepatitis B virus (HBV)) was 0.5 to 5 µM and the CC50 at 6 days [1] was over 100 µM.

`Cc1oc(C(=O)C(=O)NC(C)(C)C)cc1C(=O)Nc1ccc(C(F)(F)F)cc1` [Compound 22, 2-Methyl-3-amide-N-(4-trifluoromethylphenyl)-5-(2-tert-butylamino-oxalyl)-furan] showed an EC50 (hepatitis B virus (HBV)) of over 50 µM and a CC50 at 6 days [1] of over 100 µM.

`C#Cc1cc(NC(=O)c2cc(C(=O)C(=O)NC(C)(C)C)oc2C)ccc1F` [Compound 27, 2-Methyl-3-amide-N-(3-alkynyl-4-fluorophenyl)-5-(2-tert-butylamino-oxalyI)-furan] showed an EC50 (hepatitis B virus (HBV)) of 5 to 50 µM and a CC50 at 6 days [1] of over 100 µM.

For `C#Cc1cccc(NC(=O)c2cc(C(=O)C(=O)NC(C)(C)C)oc2C)c1` [Compound 28, 2-Methyl-3-amide-N-(3-alkynylphenyl)-5-(2-tert-butylamino-oxalyl)-furan], the EC50 (hepatitis B virus (HBV)) was 5 to 50 µM and the CC50 at 6 days [1] was over 100 µM.

With `Cc1sc(C(=O)C(=O)NC(C)(C)C)cc1C(=O)Nc1ccc(F)c(Cl)c1` [Compound 29, 2-Methyl-3-amide-N-(3-chloro-4-fluorophenyl)-5-(2-tert-butylamino-oxalyl)-thiophene] the EC50 (hepatitis B virus (HBV)) was 0.05 to 0.5 µM and the CC50 at 6 days [1] was over 100 µM.

With `C#CCNC(=O)C(=O)c1cc(C(=O)Nc2ccc(F)c(Cl)c2)c(C)s1` [Compound 30, 2-Methyl-3-amide-N-(3-chloro-4-fluorophenyl)-5-(2-propargylamino-oxalyl)-thiophene] the EC50 (hepatitis B virus (HBV)) was 0.5 to 5 µM and the CC50 at 6 days [1] was over 100 µM.

`Cc1sc(C(=O)C(=O)NC(C)(C)C)cc1C(=O)Nc1ccc(F)c(F)c1` [Compound 34, 2-Methyl-3-amide-N-(3,4-difluorophenyl)-5-(2-tert-butylamino-oxalyl)-thiophene] gave an EC50 (hepatitis B virus (HBV)) of 0.05 to 0.5 µM and a CC50 at 6 days [1] of over 100 µM.

With `Cc1sc(C(=O)C(=O)NC(C)(C)C)cc1C(=O)Nc1cc(F)c(F)c(F)c1` [Compound 35, 2-Methyl-3-amide-N-(3,4,5-trifluorophenyl)-5-(2-tert-butylamino-oxalyl)-thiophene] the EC50 (hepatitis B virus (HBV)) was 0.5 to 5 µM and the CC50 at 6 days [1] was over 100 µM.

`C#CC(C)(C)NC(=O)C(=O)c1sc(C)c(C(=O)Nc2ccc(F)c(Cl)c2)c1C` [Compound 38, 2,4-Dimethyl-3-amide-N-(3-chloro-4-fluorophenyl)-5-(2-(1,1-dimethylpropynamido)-oxalyl)-thiophene] gave an EC50 (hepatitis B virus (HBV)) of at most 0.05 µM and a CC50 at 6 days [1] of over 100 µM.

`C#CC(C)(C)NC(=O)C(=O)c1sc(C)c(C(=O)Nc2ccc3occc3c2)c1C` [Compound 39, 2,4-Dimethyl-3-amide-N-(benzofuran-5-yl)-5-(2-(1,1-dimethylpropynamido)-oxalyl)-Thiophene] gave an EC50 (hepatitis B virus (HBV)) of at most 0.05 µM and a CC50 at 6 days [1] of over 100 µM.

Compound `COCC1(NC(=O)C(=O)c2sc(C)c(C(=O)Nc3ccc4occc4c3)c2C)COC1` [Compound 41] has an EC50 (hepatitis B virus (HBV)) of at most 0.05 µM and a CC50 at 6 days [1] of over 100 µM.

With `CC(C)(C)NC(=O)C(=O)c1cc(C(=O)Nc2ccc(F)cc2)c(C(C)(C)C)o1` [Compound 43, 2-tert-Butyl-3-amide-N-(4-fluorophenyl)-5-(2-tert-butylamino-oxalyl)-furan] the EC50 (hepatitis B virus (HBV)) was 5 to 50 µM and the CC50 at 6 days [1] was over 100 µM.

For `CC(C)(C)NC(=O)C(=O)c1nc(C(=O)Nc2ccc(F)c(Cl)c2)cs1` [Compound 44, 2-(2-Tert-Butylamino-oxalyl)-4-amide-N-(3-chloro-4-fluoro-phenyl)-thiazole], the EC50 (hepatitis B virus (HBV)) was over 50 µM and the CC50 at 6 days [1] was 28 µM.

With `Cc1oc(C(=O)C(=O)NC(C)(C)C)c(Cl)c1C(=O)Nc1cc(F)c(F)c(F)c1` [Compound 49, 2-Methyl-3-amide-N-(3,4,5-trifluorophenyl)-4-chloro-5-(2-tert-butylamino-oxalyl)-furan] the EC50 (hepatitis B virus (HBV)) was 5 to 50 µM and the CC50 at 6 days [1] was 47 µM.

With `C#CC1(NC(=O)C(=O)c2c(C)c(C(=O)Nc3ccc4occc4c3)n(C)c2C)CC1` [Compound 55, 1,3,5-Trimethyl-2-amide-N-(benzofuran-5-yl)-4-(2-(1-ethynylcyclopropane-1-amino)-oxalyl)-Pyrrole] the EC50 (hepatitis B virus (HBV)) was at most 0.05 µM and the CC50 at 6 days [1] was over 100 µM.

For `Cc1c(C(=O)C(=O)NC2(C)COC2)c(C)n(C)c1C(=O)Nc1ccc2occc2c1` [Compound 57, 1,3,5-Trimethyl-2-amide-N-(benzofuran-5-yl)-4-(2-(3-methyl-3-oxetanino)-oxalyl)-pyrrole], the EC50 (hepatitis B virus (HBV)) was at most 0.05 µM and the CC50 at 6 days [1] was over 100 µM.

Work on `Cc1c(C(=O)C(=O)NC2CCCC2)c(C)n(C)c1C(=O)Nc1ccc2occc2c1` [Compound 58, 1,3,5-Trimethyl-2-amide-N-(benzofuran-5-yl)-4-(2-cyclopentylamino-oxalyl)-pyrrole] yielded an EC50 (hepatitis B virus (HBV)) of at most 0.05 µM and a CC50 at 6 days [1] of over 100 µM.

In the case of `Cc1c(C(=O)C(=O)Nc2nccs2)c(C)n(C)c1C(=O)Nc1ccc2occc2c1` [Compound 59, 1,3,5-Trimethyl-2-amide-N-(benzofuran-5-yl)-4-(2-(thiazol-2-amino)-oxalyl)-pyrrole], the EC50 (hepatitis B virus (HBV)) is reported as at most 0.05 µM and the CC50 at 6 days [1] is reported as over 100 µM.
